From PMC10418426, “A Comprehensive Technology Platform for the Rapid Discovery of Peptide Inhibitors against SARS-CoV-2 Pseudovirus Infection” (International Journal of Molecular Sciences, 2023)
Starred links: 1 amine or outer side, 2 acyl side, 3 side chain; linkers in the order of their positions; H or OH if unused. Positions of bridges follow the written chain, without caps; N, C: chain ends. Residues, ends and D or L forms follow the SMILES beside them. mXylylene = c1cc(C[*:1])cc(C[*:2])c1

Test system: HEK293-ACE2 cells
Conditions: 1 to 100 μM, 24 h treatment plus 24 h in fresh medium, absorbance 560 nm

Structure (SMILES): C[C@@H](O)[C@@H]1NC(=O)[C@@H]2CCCN2C(=O)[C@H](CCC(N)=O)NC(=O)[C@@H](N)CSCc2cccc(c2)CSC[C@@H](C(N)=O)NC(=O)[C@H](CCC(N)=O)NC(=O)[C@H](Cc2c[nH]c3ccccc23)NC(=O)CNC(=O)[C@H](CCCCN)NC(=O)CNC(=O)[C@H](CC(N)=O)NC1=O [c9_05] (H-CQPTNGKGWQC-NH2; linker 1-11 via mXylylene)
- effect on cell viability (MTT): did not cause any significant decrease in cell viability
